Results published in ChEMBL document CHEMBL3046777, “Synthesis of new phenylcarbamoylbenzoic acid derivatives and evaluation of their in vitro antioxidant activity” (Med Chem Res, 2012).

Experiment: Antioxidant activity assessed as […] by ABTS-spectrophotometric assay
Assay type: functional
Set-up: concentration or dose not given beside the values
Settings: dose or concentration not given here

## O=C(NN1C(=O)c2ccccc2C1=O)c1ccc(NC(=O)c2ccccc2C(=O)O)cc1
  inhibition: 8.39%

## CCOC(=O)c1ccc(NC(=O)c2ccccc2C(=O)O)cc1
  inhibition: 4.09%

## COc1ccc(/C=N/NC(=O)c2ccc(NC(=O)c3ccccc3C(=O)O)cc2)cc1
  inhibition: 4.29%

## C/C(=N\N1C(=O)c2ccccc2C1=O)c1ccc(NC(=O)c2ccccc2C(=O)O)cc1
  inhibition: 4.19%

## NNC(=O)c1ccc(NC(=O)c2ccccc2C(=O)O)cc1
  inhibition: 55.2%

## CC(=O)c1ccc(NC(=O)c2ccccc2C(=O)O)cc1
  inhibition: 7.42%

## C/C(=N\N=C\c1ccccc1)c1ccc(NC(=O)c2ccccc2C(=O)O)cc1
  inhibition: 12.9%

## O=C(N/N=C/c1ccc(Cl)cc1)c1ccc(NC(=O)c2ccccc2C(=O)O)cc1
  inhibition: 19.5%

## O=C(N/N=C/c1ccccc1)c1ccc(NC(=O)c2ccccc2C(=O)O)cc1
  inhibition: 8.78%

## COc1ccc(/C=N/N=C(\C)c2ccc(NC(=O)c3ccccc3C(=O)O)cc2)cc1
  inhibition: 23%

## C/C(=N\NC(=O)c1ccc(NC(=O)c2ccccc2C(=O)O)cc1)c1ccc(NC(=O)c2ccccc2C(=O)O)cc1
  inhibition: 9.95%

## C/C(=N\N=C\c1ccc(Cl)cc1)c1ccc(NC(=O)c2ccccc2C(=O)O)cc1
  inhibition: 24.8%

## C/C(=N\N=C(/C)c1ccc(NC(=O)c2ccccc2C(=O)O)cc1)c1ccccc1
  inhibition: 9.85%

## C/C(=N\N=C(/C)c1ccc(NC(=O)c2ccccc2C(=O)O)cc1)c1ccc(NC(=O)c2ccccc2C(=O)O)cc1
  inhibition: 10.6%

## C/C(=N\N)c1ccc(NC(=O)c2ccccc2C(=O)O)cc1
  inhibition: 18.2%

## C/C(=N\NC(=O)c1ccc(NC(=O)c2ccccc2C(=O)O)cc1)c1ccccc1
  inhibition: 2.63%
